Source: publication PMC5996347, “2-Mercapto-Quinazolinones as Inhibitors of Type II NADH Dehydrogenase and Mycobacterium tuberculosis: Structure–Activity Relationships, Mechanism of Action and Absorption, Distribution, Metabolism, and Excretion Characterization” (ACS Infectious Diseases, 2018)
Converted amounts (≈) assume the structure as drawn. Where two headings read alike, the source gives them in different places.

Assays:
M. tuberculosis H37Rv [1] = assay: H37Rv MIC in GAST medium; assay type: cell-based, Mycobacterium tuberculosis
M. tuberculosis H37Rv [2] = assay: microbe, parasite or virus in culture; assay type: cell-based; settings: Mycobacterium tuberculosis
[3] = test system: cyd knockout strain (cydC::aph); assay type: cell-based, Mycobacterium tuberculosis
piniBAC reporter strain = assay type: cell-based, Mycobacterium tuberculosis; settings: upregulation of iniBAC promoter
physchem [4] = assay type: physicochemical; settings: pH 7.4
Procedure: The chromatographic hydrophobicity index (CHI) was determined according the method previously described.[43],[44] Briefly, test compounds were prepared as 0.5 mM solutions in 50:50 acetonitrile/water and analyzed by reversed-phase HPLC-UV (wavelength 254 nm) using a Phenomenex Luna C18 100 Å, 150 × 4.6 mm, 5 μm column with a gradient of aqueous phase (50 mM ammonium acetate (pH 7.4)) and mobile phase (acetonitrile). By plotting the retention time of a set of reference compounds against known CHI values, the CHI value of test compounds was calculated according to their retention time.

[5] = assay type: in vitro ADME; settings: female, CD1, mouse, 0.5 μM, pH 7.4
Procedure: Test compound (0.5 μM) was incubated with female CD1 mouse liver microsomes (Xenotech LLC; 0.5 mg/mL, 50 mM potassium phosphate buffer, pH 7.4), and the reaction started with addition of excess NADPH (8 mg/mL, 50 mM potassium phosphate buffer, pH 7.4). Immediately, at time zero, and then at 3, 6, 9, 15, and 30 min, an aliquot (50 μL) of the incubation mixture was removed and mixed with acetonitrile (100 μL) to stop the reaction. Internal standard was added to all samples; the samples were centrifuged to sediment precipitated protein, and the plates were then sealed prior to UPLC-MS/MS analysis using a Quattro Premier XE (Waters Corporation, USA). XLfit (IDBS, UK) was used to calculate the exponential decay and consequently the rate constant (k) from the ratio of peak area of test compound to internal standard at each time point. The rate of intrinsic clearance (Cli) of each test compound was then calculated using the following calculation. [drawing 1] where V (mL/mg protein) is the incubation volume/mg protein added and microsomal protein yield is taken as 52.5 mg protein/g liver. Verapamil (0.5 μM) was used as a positive control to confirm acceptable assay performance.

[6] = Calculated properties (StarDrop)
physchem [7] = assay type: physicochemical; settings: for solubility kinetic: water, kinetic from dmso stock
Procedure: The aqueous solubility of the test compounds was measured using laser nephelometry. Compounds were subject to serial dilution from 10 to 0.5 mM in DMSO. An aliquot was then mixed with Milli-Q water to obtain an aqueous dilution plate with a final concentration range of 250–12 μM, with a final DMSO concentration of 2.5%. Triplicate aliquots were transferred to a flat bottomed polystyrene plate which was immediately read on the NEPHELOstar (BMG Lab Technologies). The amount of laser scatter caused by insoluble particulates (relative nephelometry units, RNU) was plotted against compound concentration using a segmental regression fit, with the point of inflection being quoted as the compounds aqueous solubility (μM).

[8] = target: T1, recombinant MBP-MtNdh (MTb NDH-2) (Mycobacterium tuberculosis, UniProt P95160); assay: Ndh activity assay (NADH oxidation at 340 nm); assay type: biochemical; settings: NADH 250 μM, Q2 40 μM; mean ± SD, Figure 6 inset; read-out: IC50 against MBP-MtNdh
T1 construct: The ORF corresponding to Rv1854c was codon optimized for E. coli; made in house; host or cells: E. coli BL21 (DE3) pLysS
T1 sequence (P95160 whole entry): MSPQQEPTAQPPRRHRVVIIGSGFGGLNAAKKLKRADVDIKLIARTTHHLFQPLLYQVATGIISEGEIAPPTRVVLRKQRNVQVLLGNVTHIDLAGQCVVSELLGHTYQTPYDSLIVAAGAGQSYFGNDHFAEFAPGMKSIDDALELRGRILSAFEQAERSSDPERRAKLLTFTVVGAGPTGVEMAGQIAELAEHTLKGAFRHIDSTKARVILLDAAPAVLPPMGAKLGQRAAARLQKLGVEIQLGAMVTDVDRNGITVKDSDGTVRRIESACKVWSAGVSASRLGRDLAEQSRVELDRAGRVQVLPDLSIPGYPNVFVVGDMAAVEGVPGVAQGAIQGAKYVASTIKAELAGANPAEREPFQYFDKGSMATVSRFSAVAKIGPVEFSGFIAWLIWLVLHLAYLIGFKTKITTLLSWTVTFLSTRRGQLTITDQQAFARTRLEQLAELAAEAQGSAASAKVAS

in vitro = in vitro ADME; settings: PAMPA, pH 7.4
Procedure: The permeability was performed using a 96-well precoated BD Gentest PAMPA plate (BD Biosciences, U.K.). Each well was divided into two chambers: donor and acceptor, separated by a lipid-oil-lipid trilayer constructed in a porous filter. The effective permeability, Pe, of the compound was measured at pH 7.4. Stock solutions (5 mM) of the compound were prepared in DMSO. The compound was then further diluted to 10 μM in phosphate buffered saline at pH 7.4. […] The compound dissolved in phosphate buffered saline was then added to the donor side of the membrane, and phosphate buffered saline without compound was added to the acceptor side. The PAMPA plate was left at room temperature for 5 h; after which time, an aliquot (100 μL) was then removed from both acceptor and donor compartments and mixed with acetonitrile (80 μL) containing an internal standard: donepezil at 50 ng/mL). The samples were centrifuged (10 min, 5 °C, 3270g) to sediment precipitated protein and sealed prior to UPLC-MS/MS analysis using a Quattro Premier XE (Waters Corp, USA). Pe was calculated as shown in the below equation. [drawing 2] where CA(t) = peak area of compound present in acceptor well at time (t) = 18 000 s; Cequi = [CD(t) × VD + CA(t) × VA]/(VD + VA); A = filter area; VD = donor well volume; VA = acceptor well volume; t = incubation time; CD(t) = peak area of compound present in donor well at time (t) = 18 000 s. Recovery of compound from donor and acceptor wells was calculated, and data was only accepted when recovery exceeded 70%.

Mouse pharmacokinetics = assay type: in vivo, female C57Bl/6 mice; settings: for AUC(0-t) / Cmax: 10 mg/kg; for AUC: whole blood, single rising oral dose
Procedure: Test compound was dosed as a bolus solution intravenously at 3 mg free base/kg (dose volume: 5 mL/kg; dose vehicle: 10% DMSO; 40% PEG400; 50% saline) to female C57Bl/6 mice (n = 3) or dosed orally by gavage as a suspension at 10 or at 5, 30, or 100 mg free base/kg (dose volume: 10 mL/kg; dose vehicle: 1.0% carboxy methyl cellulose) to female C57Bl/6 mice (n = 3/dose level). Blood samples were taken from each mouse tail vein at predetermined time points postdose, mixed with nine volumes of distilled water, and stored frozen until UPLC-MS/MS analysis. Pharmacokinetic parameters were derived from the blood concentration time curve using PK Solutions software v 2.0 (Summit Research Services, USA).

[9] = assay type: in vitro ADME; settings: mouse, plasma
Procedure: In brief, a 96-well equilibrium dialysis apparatus was used to determine the free fraction in plasma for each compound (HT Dialysis LLC, Gales Ferry, CT). Membranes (12–14 kDaA cutoff) were conditioned in deionized water for 60 min, followed by conditioning in 80:20 deionized water/ethanol overnight and then rinsed in water and isotonic buffer before use. Mouse plasma from appropriate species was removed from the freezer and allowed to thaw on the day of experiment. Thawed plasma was then centrifuged (Allegra X12-R, Beckman Coulter, USA) and spiked with test compound (final concentration 10 μg/mL), and 150 μL aliquots (n = 3 replicate determinations) were loaded into the 96-well equilibrium dialysis plate. Dialysis against isotonic buffer (150 μL) was carried out for 5 h in a temperature controlled incubator at ca. 37 °C (Barworld scientific Ltd., UK) using an orbital microplate shaker at 100 rpm (Barworld scientific Ltd., UK). At the end of the incubation period, 50 μL aliquots of plasma or buffer were transferred into a 96-well deep plate and the composition in each well was balanced with control fluid (50 μL), such that the volume of buffer to plasma is the same. Sample extraction was performed by the addition of 200 μL of acetonitrile containing an appropriate internal standard. Samples were allowed to mix for 1 min and then centrifuged at 3000 rpm in 96-well blocks for 15 min (Allegra X12-R, Beckman Coulter, USA) after which 150 μL of supernatant was removed to 50 μL of water. All samples were analyzed by UPLC-MS/MS on a Quattro Premier XE Mass Spectrometer (Waters Corporation, USA). The unbound fraction was determined as the ratio of the peak area in buffer to that in plasma.

HepG2 [10] = assay: cells; settings: Homo sapiens, HepG2, read-out: HepG2 IC50
[11] = target: T1, recombinant MBP-MtNdh (MTb NDH-2); parameters: method as in PMID 15767566; settings: range covering Figure 6 and literature; read-out: IC50 against NDH-2 (text, chlorpromazine); cited from earlier work
MTb H37Rv = assay: Intracellular ATP levels (BacTiter-Glo); settings: 24 h drug exposure
M. tuberculosis = assay: microbe, parasite or virus in culture; assay type: cell-based; settings: Mycobacterium tuberculosis; read-out: MIC (internal control reference compound)
HepG2 [12] = settings: human
[13] = mouse liver microsomes
M. tuberculosis H37Rv [14] = assay: Extracellular flux analysis (oxygen consumption rate); settings: 1 at 39 μM, 7 at 45 μM
[15] = Mycobacterium tuberculosis, H37RV, read-out: GAST MIC
[16] = Mycobacterium tuberculosis, H37RV, read-out: GAST MIC in ng/mL
[17] = female, C57Bl/6, mouse, in vivo, po
[18] = female, C57Bl/6, mouse, in vivo

Row | SMILES | MIC (M. tuberculosis H37Rv [1]; [15]) | MIC (M. tuberculosis H37Rv [2]; read-out: 7H9-ADC MIC) | chromatographic logD (physchem [4]) | solubility kinetic (physchem [7]) | IC50 [8] | MIC (M. tuberculosis H37Rv [1]; [16]) | MIC (M. tuberculosis H37Rv [2]; read-out: 7H9-ADC MIC in ng/mL) | Kinetic solubility (physchem [7]) | Papp at 5 h, 10 μM (in vitro) | AUC(0-t) (Mouse pharmacokinetics; [17]) | Cmax (Mouse pharmacokinetics; [17]) | PPB (% unbound) [9] | IC50 (HepG2 [10]) | further results
1 | O=C(CSc1nc2ccccc2c(=O)[nH]1)NCc1ccccc1 [Compound 2] | 5.9 µM | 4.5 µM | 1.5 | 109 µM (≈ 35.5 µg/mL) | 0.51 ± 0.05 µM | – | – | – | – | – | – | – | – | Cyd KO reporter [3]: Not likely QcrB inhibitor; pini-LUC reporter (piniBAC reporter strain): Not likely cell wall inhibitor; Microsomal Cli, mouse [5]: Mouse 1.6 mL/min/g; PFI [6]: 4.3
2 | O=C(CSc1nc2ccccc2c(=O)[nH]1)NCC1CCC(F)(F)CC1 [Compound 11, N-((4,4-Difluorocyclohexyl)methyl)-2-((4-oxo-3,4-dihydroquinazolin-2-yl)thio)acetamide] | 0.8 µM | 1.1 µM | 1.6 | 250 µM (≈ 91.9 µg/mL) | 0.026 ± 0.006 µM | 294 ng/mL | 294 ng/mL | >250 µM | 6.5 ×10⁻⁶ cm/s | 2140 ng·h/mL | 1110 ng/mL | 21 % unbound | > 50 µM | MIC (M. tuberculosis H37Rv [1]; read-out: GAST MIC): 0.8 µM
3 | CN(C)CCCN1c2ccccc2Sc2ccc(Cl)cc21 [CPZ, chlorpromazine, reference compound] | – | – | – | – | 25 ± 2 µM | – | – | – | – | – | – | – | – | IC50 [11]: 10 to 25 µM
4 | COc1nc2ccc(Br)cc2cc1[C@@H](c1ccccc1)[C@@](O)(CCN(C)C)c1cccc2ccccc12 [bedaquiline] | – | – | – | – | – | – | – | – | – | – | – | – | – | Cellular ATP levels in MTb (MTb H37Rv): depletion of cellular ATP levels
5 | NNC(=O)c1ccncc1 [Isoniazid, isoniazid] | – | – | – | – | – | – | – | – | – | – | – | – | – | MIC (M. tuberculosis): 0.2 µM (≈ 0.0274 µg/mL)
6 | O=C(CSc1nc2ccccc2c(=O)[nH]1)NC1CCC(F)(F)CC1 [Compound 7, N-(4,4-Difluorocyclohexyl)-2-((4-oxo-3,4-dihydroquinazolin-2-yl)thio)acetamide] | 0.4 µM | 0.4 µM | 1.5 | 105 µM (≈ 37.1 µg/mL) | 0.0066 ± 0.004 µM | 141 ng/mL | 141 ng/mL | 111 (HCl salt) μM | 6.4 ×10⁻⁶ cm/s | 1120 ng·h/mL | 399 ng/mL | 13 % unbound | > 50 µM | Clb (Mouse pharmacokinetics; [18]): 39 mL/min/kg; Vd (Mouse pharmacokinetics; [18]): 1 L/kg; bioavailability (Mouse pharmacokinetics; [18]): 29%; AUC (Mouse pharmacokinetics; female, C57Bl/6, mouse, 5 mg/kg, read-out: AUC at 5 mg/kg oral (converted)): 9430 ng·h/mL; AUC (Mouse pharmacokinetics; female, C57Bl/6, mouse, 30 mg/kg, read-out: AUC at 30 mg/kg oral (converted)): 2190 ng·h/mL; AUC (Mouse pharmacokinetics; female, C57Bl/6, mouse, 100 mg/kg, read-out: AUC at 100 mg/kg oral (converted)): 2200 ng·h/mL; half-life (Mouse pharmacokinetics; female, C57Bl/6, whole blood, C57 mouse PK at 3 iv and 10 po (mg/kg), 1 free base, 7 HCl salt): 1.3 h; Dose linearity (AUC comparison) (Mouse pharmacokinetics; mouse, in vivo, po, 100 mg/kg): no dose linearity was observed; HepG2 cytotoxicity (in words) (HepG2 [12]): no HepG2 cytotoxicity was observed; Human microsomal metabolite identification (human liver microsomes): oxidation of the quinazolinone ring; GSH trapping: adducts formed (with and without human liver microsomes): GSH adducts 12 and 13, without microsomal activation; Mouse microsomal metabolite identification [13]: a small amount of amide bond cleavage as well as oxidation of the quinazolin-4(3H)-one ring; Effect on maximal respiration after CCCP uncoupling (M. tuberculosis H37Rv [14]; CCCP 3 μM, compared to untreated control): significantly diminished maximal respiration; Effect on basal MTb OCR (M. tuberculosis H37Rv [14]; ~45 min, glucose or palmitate): minimal effect
